Measurements published in US20230017045A1, “PYRIDINE AND PYRIMIDINE CARBOXYLATE HERBICIDES AND METHODS OF USE THEREOF” (Dow AgroSciences LLC, priority 2017, published 2023).

test system: test plant species; assay: Post-emergent herbicidal activity test (greenhouse, foliar spray, visual growth reduction); assay type: in vivo; settings: post-emergence, 336 h, ALOMY: blackgrass (Alopecurus myosuroides), 140 g ai/ha, 14 days after application, read-out: Visual Growth Reduction (%) 14 Days After Application, ALOMY
Description: Post-emergent Test: Seeds or nutlets of the desired test plant species were planted in Sun Gro Metro-Mix® 360 planting mixture, which typically has a pH of 6.0 to 6.8 and an organic matter content of about 30 percent, in plastic pots with a surface area of 64 square centimeters. In some aspects, to ensure good germination and healthy plants, a fungicide treatment and/or other chemical or physical treatment was applied. The plants were grown for 7-21 d in a greenhouse with an approximate 15 h photoperiod which was maintained at 23-29° C. during the day and 22-28° C. during the night. Nutrients and water were added on a regular basis and supplemental lighting was provided with overhead metal halide 1000-Watt lamps as necessary. Plants were used for testing when they reached the first or second true leaf stage. A weighed amount, determined by the highest rate to be tested, of each test compound was placed in a 25 mL glass vial and was dissolved in 4 mL of a 97:3 v/v mixture of acetone and DMSO to obtain concentrated stock solutions. […] The concentrated stock solutions obtained were diluted with 20 mL of an aqueous mixture containing acetone, water, isopropyl alcohol, DMSO, […] crop oil concentrate, and X-77 surfactant in a 48.5:39:10:1.5:1.0:0.02 v/v ratio to obtain spray solutions containing the application rate. Compound requirements are based upon a 12 mL application volume at a rate of 187 liters per hectare (L/ha). Formulated compounds were applied to the plant material with an overhead Mandel track sprayer equipped with […] nozzles calibrated to deliver 187 L/ha over an application area of 0.64 square meters at a spray height of 18 inches (43 cm) above the average plant canopy height. Control plants were sprayed in the same manner with the solvent blank. The treated plants and control plants were placed in a greenhouse as described above and watered by subirrigation to prevent wash-off of the test compounds. After 14 d, the condition of the test plants as compared with that of the nontreated and control plants was determined visually and scored on a scale of 0 to 100 percent where 0 corresponds to no injury and 100 corresponds to complete control. In the reporting of the results, Table A: Percent Growth Reduction Conversion Table was used.

Structure (SMILES) | pest or weed control at 140 g/ha
COC(=O)c1nc(-c2ccc(C(F)(F)F)cc2Cl)c(F)c(Cl)c1Cl [F43, methyl 3,4-dichloro-6-(2-chloro-4-(trifluoromethyl)phenyl)-5-fluoropicolinate] | 0 to 29%
COC(=O)c1nc(-c2ccc(C(F)(F)F)cc2F)c(Cl)cc1Cl [F102, Methyl 3,5-dichloro-6-(2-fluoro-4-(trifluoromethyl)phenyl)picolinate] | 0 to 29%

same assay, conditions: post-emergence, 336 h, AMARE: redroot pigweed (Amaranthus retroflexus), 140 g ai/ha, 14 days after application, read-out: Visual Growth Reduction (%) 14 Days After Application, AMARE

Structure (SMILES) | pest or weed control at 140 g/ha
COC(=O)c1nc(-c2ccc(C(F)(F)F)cc2Cl)c(F)c(Cl)c1Cl [F43, methyl 3,4-dichloro-6-(2-chloro-4-(trifluoromethyl)phenyl)-5-fluoropicolinate] | 0 to 29%
COC(=O)c1nc(-c2ccc(C(F)(F)F)cc2F)c(Cl)cc1Cl [F102, Methyl 3,5-dichloro-6-(2-fluoro-4-(trifluoromethyl)phenyl)picolinate] | 45 to 59%

same assay, conditions: post-emergence, 336 h, AVEFA: wild oat (Avena fatua), 140 g ai/ha, 14 days after application, read-out: Visual Growth Reduction (%) 14 Days After Application, AVEFA

Structure (SMILES) | pest or weed control at 140 g/ha
COC(=O)c1nc(-c2ccc(C(F)(F)F)cc2Cl)c(F)c(Cl)c1Cl [F43, methyl 3,4-dichloro-6-(2-chloro-4-(trifluoromethyl)phenyl)-5-fluoropicolinate] | 0 to 29%
COC(=O)c1nc(-c2ccc(C(F)(F)F)cc2F)c(Cl)cc1Cl [F102, Methyl 3,5-dichloro-6-(2-fluoro-4-(trifluoromethyl)phenyl)picolinate] | 0 to 29%

same assay, conditions: post-emergence, 336 h, CHEAL: lambsquarters (Chenopodium album), 140 g ai/ha, 14 days after application, read-out: Visual Growth Reduction (%) 14 Days After Application, CHEAL

Structure (SMILES) | pest or weed control at 140 g/ha
COC(=O)c1nc(-c2ccc(C(F)(F)F)cc2Cl)c(F)c(Cl)c1Cl [F43, methyl 3,4-dichloro-6-(2-chloro-4-(trifluoromethyl)phenyl)-5-fluoropicolinate] | 0 to 29%
COC(=O)c1nc(-c2ccc(C(F)(F)F)cc2F)c(Cl)cc1Cl [F102, Methyl 3,5-dichloro-6-(2-fluoro-4-(trifluoromethyl)phenyl)picolinate] | 60 to 74%

same assay, conditions: post-emergence, 336 h, CIRAR: canada thistle (Cirsium arvense), 140 g ai/ha, 14 days after application, read-out: Visual Growth Reduction (%) 14 Days After Application, CIRAR

Structure (SMILES) | pest or weed control at 140 g/ha
COC(=O)c1nc(-c2ccc(C(F)(F)F)cc2Cl)c(F)c(Cl)c1Cl [F43, methyl 3,4-dichloro-6-(2-chloro-4-(trifluoromethyl)phenyl)-5-fluoropicolinate] | 0 to 29%
COC(=O)c1nc(-c2ccc(C(F)(F)F)cc2F)c(Cl)cc1Cl [F102, Methyl 3,5-dichloro-6-(2-fluoro-4-(trifluoromethyl)phenyl)picolinate] | 0 to 29%

same assay, conditions: post-emergence, 336 h, CYPES: yellow nutsedge (Cyperus esculentus), 140 g ai/ha, 14 days after application, read-out: Visual Growth Reduction (%) 14 Days After Application, CYPES

Structure (SMILES) | pest or weed control at 140 g/ha
COC(=O)c1nc(-c2ccc(C(F)(F)F)cc2Cl)c(F)c(Cl)c1Cl [F43, methyl 3,4-dichloro-6-(2-chloro-4-(trifluoromethyl)phenyl)-5-fluoropicolinate] | 0 to 29%
COC(=O)c1nc(-c2ccc(C(F)(F)F)cc2F)c(Cl)cc1Cl [F102, Methyl 3,5-dichloro-6-(2-fluoro-4-(trifluoromethyl)phenyl)picolinate] | 0 to 29%

same assay, conditions: post-emergence, 336 h, DIGSA: crabgrass (Digitaria sanguinalis), 140 g ai/ha, 14 days after application, read-out: Visual Growth Reduction (%) 14 Days After Application, DIGSA

Structure (SMILES) | pest or weed control at 140 g/ha
COC(=O)c1nc(-c2ccc(C(F)(F)F)cc2Cl)c(F)c(Cl)c1Cl [F43, methyl 3,4-dichloro-6-(2-chloro-4-(trifluoromethyl)phenyl)-5-fluoropicolinate] | 0 to 29%
COC(=O)c1nc(-c2ccc(C(F)(F)F)cc2F)c(Cl)cc1Cl [F102, Methyl 3,5-dichloro-6-(2-fluoro-4-(trifluoromethyl)phenyl)picolinate] | 0 to 29%

same assay, conditions: post-emergence, 336 h, ECHCG: barnyardgrass (Echinochloa crus-galli), 140 g ai/ha, 14 days after application, read-out: Visual Growth Reduction (%) 14 Days After Application, ECHCG

Structure (SMILES) | pest or weed control at 140 g/ha
COC(=O)c1nc(-c2ccc(C(F)(F)F)cc2Cl)c(F)c(Cl)c1Cl [F43, methyl 3,4-dichloro-6-(2-chloro-4-(trifluoromethyl)phenyl)-5-fluoropicolinate] | 0 to 29%
COC(=O)c1nc(-c2ccc(C(F)(F)F)cc2F)c(Cl)cc1Cl [F102, Methyl 3,5-dichloro-6-(2-fluoro-4-(trifluoromethyl)phenyl)picolinate] | 0 to 29%

same assay, conditions: post-emergence, 336 h, IPOHE: ivy-leaf morning glory (Ipomoea hederacea), 140 g ai/ha, 14 days after application, read-out: Visual Growth Reduction (%) 14 Days After Application, IPOHE

Structure (SMILES) | pest or weed control at 140 g/ha
COC(=O)c1nc(-c2ccc(C(F)(F)F)cc2Cl)c(F)c(Cl)c1Cl [F43, methyl 3,4-dichloro-6-(2-chloro-4-(trifluoromethyl)phenyl)-5-fluoropicolinate] | 0 to 29%
COC(=O)c1nc(-c2ccc(C(F)(F)F)cc2F)c(Cl)cc1Cl [F102, Methyl 3,5-dichloro-6-(2-fluoro-4-(trifluoromethyl)phenyl)picolinate] | 60 to 74%

same assay, conditions: post-emergence, 336 h, KCHSC: kochia (Bassia scoparia), 140 g ai/ha, 14 days after application, read-out: Visual Growth Reduction (%) 14 Days After Application, KCHSC

Structure (SMILES) | pest or weed control at 140 g/ha
COC(=O)c1nc(-c2ccc(C(F)(F)F)cc2Cl)c(F)c(Cl)c1Cl [F43, methyl 3,4-dichloro-6-(2-chloro-4-(trifluoromethyl)phenyl)-5-fluoropicolinate] | 0 to 29%
COC(=O)c1nc(-c2ccc(C(F)(F)F)cc2F)c(Cl)cc1Cl [F102, Methyl 3,5-dichloro-6-(2-fluoro-4-(trifluoromethyl)phenyl)picolinate] | 0 to 29%

same assay, conditions: post-emergence, 336 h, ORYSA: rice (Oryza sativa), 140 g ai/ha, 14 days after application, read-out: Visual Growth Reduction (%) 14 Days After Application, ORYSA

Structure (SMILES) | pest or weed control at 140 g/ha
COC(=O)c1nc(-c2ccc(C(F)(F)F)cc2Cl)c(F)c(Cl)c1Cl [F43, methyl 3,4-dichloro-6-(2-chloro-4-(trifluoromethyl)phenyl)-5-fluoropicolinate] | 0 to 29%
COC(=O)c1nc(-c2ccc(C(F)(F)F)cc2F)c(Cl)cc1Cl [F102, Methyl 3,5-dichloro-6-(2-fluoro-4-(trifluoromethyl)phenyl)picolinate] | 0 to 29%

same assay, conditions: post-emergence, 336 h, SETFA: giant foxtail (Setaria faberi), 140 g ai/ha, 14 days after application, read-out: Visual Growth Reduction (%) 14 Days After Application, SETFA

Structure (SMILES) | pest or weed control at 140 g/ha
COC(=O)c1nc(-c2ccc(C(F)(F)F)cc2Cl)c(F)c(Cl)c1Cl [F43, methyl 3,4-dichloro-6-(2-chloro-4-(trifluoromethyl)phenyl)-5-fluoropicolinate] | 0 to 29%
COC(=O)c1nc(-c2ccc(C(F)(F)F)cc2F)c(Cl)cc1Cl [F102, Methyl 3,5-dichloro-6-(2-fluoro-4-(trifluoromethyl)phenyl)picolinate] | 0 to 29%

same assay, conditions: post-emergence, 336 h, SORVU: grain sorghum (Sorghum vulgare), 140 g ai/ha, 14 days after application, read-out: Visual Growth Reduction (%) 14 Days After Application, SORVU

Structure (SMILES) | pest or weed control at 140 g/ha
COC(=O)c1nc(-c2ccc(C(F)(F)F)cc2Cl)c(F)c(Cl)c1Cl [F43, methyl 3,4-dichloro-6-(2-chloro-4-(trifluoromethyl)phenyl)-5-fluoropicolinate] | 45 to 59%
COC(=O)c1nc(-c2ccc(C(F)(F)F)cc2F)c(Cl)cc1Cl [F102, Methyl 3,5-dichloro-6-(2-fluoro-4-(trifluoromethyl)phenyl)picolinate] | 60 to 74%

same assay, conditions: post-emergence, 336 h, STEME: common chickweed (Stellaria media), 140 g ai/ha, 14 days after application, read-out: Visual Growth Reduction (%) 14 Days After Application, STEME

Structure (SMILES) | pest or weed control at 140 g/ha
COC(=O)c1nc(-c2ccc(C(F)(F)F)cc2Cl)c(F)c(Cl)c1Cl [F43, methyl 3,4-dichloro-6-(2-chloro-4-(trifluoromethyl)phenyl)-5-fluoropicolinate] | 0 to 29%
COC(=O)c1nc(-c2ccc(C(F)(F)F)cc2F)c(Cl)cc1Cl [F102, Methyl 3,5-dichloro-6-(2-fluoro-4-(trifluoromethyl)phenyl)picolinate] | 0 to 29%

same assay, conditions: post-emergence, 336 h, TRZAS: wheat, spring (Triticum aestivum), 140 g ai/ha, 14 days after application, read-out: Visual Growth Reduction (%) 14 Days After Application, TRZAS

Structure (SMILES) | pest or weed control at 140 g/ha
COC(=O)c1nc(-c2ccc(C(F)(F)F)cc2Cl)c(F)c(Cl)c1Cl [F43, methyl 3,4-dichloro-6-(2-chloro-4-(trifluoromethyl)phenyl)-5-fluoropicolinate] | 0 to 29%
COC(=O)c1nc(-c2ccc(C(F)(F)F)cc2F)c(Cl)cc1Cl [F102, Methyl 3,5-dichloro-6-(2-fluoro-4-(trifluoromethyl)phenyl)picolinate] | 0 to 29%
